In patent US11058688B2, “Imidazopiperazine inhibitors of transcription activating proteins” (Board of Regents, The University of Texas System, priority 2018, dated 2021):

Experiments:
BRD4(49-170) bromodomain = BRD4(49-170) bromodomain (Homo sapiens (Human), UniProt O60885); experiment: BRD4 AlphaScreen Assay; details: binding to biotin-H4(1-21) Ac-K5/8/12/16 peptide
Protocol: (§1) Specific binding of the CBP or BRD4 bromodomain to the acetylated peptide derived from the H4 histone substrate (tetra acetylated H4(1-21) Ac-K5/8/12/16) was measured in absence or presence of inhibitors.
(§2) The standard dose response curves were fitted by Genedata Screener software using the variable-slope model: Signal=Signalnegative control+(SignalDMSO control−Signalnegative control)/(1+(IC50/Dose)^Hill slope).
(§3) Only Signal and Dose in the equation were treated as known values.

[1] = molecular target: GST-CBP(1081-1197) bromodomain (Homo sapiens (Human), UniProt Q92793); experiment: CBP AlphaScreen Assay; details: binding to biotin-H4(1-21) Ac-K5/8/12/16 peptide
Sequence of GST-CBP(1081-1197) bromodomain (Q92793 1081-1197): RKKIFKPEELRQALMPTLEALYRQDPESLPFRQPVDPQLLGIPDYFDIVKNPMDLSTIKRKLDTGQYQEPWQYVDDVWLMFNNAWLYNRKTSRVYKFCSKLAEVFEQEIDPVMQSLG
Protocol: as §1, §2, §3

| Structure (SMILES) | IC50 (BRD4(49-170) bromodomain) | IC50 [1] |
| --- | --- | --- |
| CNC(=O)N1CCn2c(C3CC3)nc(-c3c(F)ccc4cc(-c5cn(C)nc5C)ncc34)c2C1 [Example 72, 3-cyclopropyl-1-(3-(1,3-dimethyl-1H-pyrazol-4-yl)-7-fluoroisoquinolin-8-yl)-N-methyl-5,6-dihydroimidazo[1,5-a]pyrazine-7(8H)-carboxamide] | 17100 nM | 54 nM |
| CNC(=O)c1ccc(-c2cc3cccc(-c4nc(C5CC5)n5c4CN(C(=O)NC)CC5)c3cn2)cn1 [Example 17, 3-Cyclopropyl-N-methyl-1-(3-(6-(methylcarbamoyl)pyridin-3-yl)isoquinolin-8-yl)-5,6-dihydroimidazo[1,5-a]pyrazine-7(8H)-carboxamide] | 5090 nM | 1 nM |
| CNC(=O)N1CCn2c(C3CC3)nc(-c3c[nH]c4cc(-c5cnn(C)c5)ncc34)c2C1 [Example 38, 3-Cyclopropyl-N-methyl-1-(6-(1-methyl-1H-pyrazol-4-yl)-1H-pyrrolo[3,2-c]pyridin-3-yl)-5,6-dihydroimidazo[1,5-a]pyrazine-7(8H)-carboxamide] | 19800 nM | 32 nM |
| CNC(=O)c1nc(-c2ccc3c(c2)c(-c2cnn(C)c2)nn3C)c2n1CCN(C(C)=O)C2 [Example 31, 7-Acetyl-N-methyl-1-(1-methyl-3-(1-methyl-1H-pyrazol-4-yl)-1H-indazol-5-yl)-5,6,7,8-tetrahydroimidazo[1,5-a]pyrazine-3-carboxamide] | 7470 nM | 611 nM |
| CC(=O)N1CCn2c(C3CC3)nc(N3CCCc4cc(-c5cnn(CCO)c5)ccc43)c2C1 [Example 121, 1-(3-cyclopropyl-1-(6-(1-(2-hydroxyethyl)-1H-pyrazol-4-yl)-3,4-dihydroquinolin-1(2H)-yl)-5,6-dihydroimidazo[1,5-a]pyrazin-7(8H)-yl)ethan-1-one] | > 25000 nM | 576 nM |
| CNC(=O)N1CCn2c(C3CC3)nc(-c3cccc4nc(-c5cnn(C)c5)ncc34)c2C1 [Example 37, 3-Cyclopropyl-N-methyl-1-(2-(1-methyl-1H-pyrazol-4-yl)quinazolin-5-yl)-5,6-dihydroimidazo[1,5-a]pyrazine-7(8H)-carboxamide] | 14300 nM | 16 nM |
| CNC(=O)N1CCn2c(C)nc(-c3ccc4c(c3)c(-c3cnn(C)c3)nn4C)c2C1 [Example 48, N,3-dimethyl-1-(1-methyl-3-(1-methyl-1H-pyrazol-4-yl)-1H-indazol-5-yl)-5,6-dihydroimidazo[1,5-a]pyrazine-7(8H)-carboxamide] | > 10000 nM | 36 nM |
| CNC(=O)N1CCn2c(C3CC3)nc(-c3cccc4nc(-c5cnn(C)c5)c(C(F)(F)F)cc34)c2C1 [Example 62, 3-cyclopropyl-N-methyl-1-(2-(1-methyl-1H-pyrazol-4-yl)-3-(trifluoromethyl)quinolin-5-yl)-5,6-dihydroimidazo[1,5-a]pyrazine-7(8H)-carboxamide] | 13500 nM | 5 nM |
| CNC(=O)N1CCn2c(C3CC3)nc(-c3cccc4nc(-c5cnc(C)s5)c(C#N)cc34)c2C1 [Example 100, 1-(3-cyano-2-(2-methylthiazol-5-yl)quinolin-5-yl)-3-cyclopropyl-N-methyl-5,6-dihydroimidazo[1,5-a]pyrazine-7(8H)-carboxamide] | 7950 nM | 4 nM |
| CNC(=O)N1CCn2c(C3CCC(F)(F)CC3)nc(-c3cccc4nc(-c5cnn(C)c5)c(C(F)F)cc34)c2C1 [Example 59, 3-(4,4-difluorocyclohexyl)-1-(3-(difluoromethyl)-2-(1-methyl-1H-pyrazol-4-yl)quinolin-5-yl)-N-methyl-5,6-dihydroimidazo[1,5-a]pyrazine-7(8H)-carboxamide] | 19000 nM | 5 nM |
| CNC(=O)N1CCn2c(C(C)C)nc(-c3ccc4c(c3)c(-c3cnn(C)c3)nn4C)c2C1 [Example 50, 3-isopropyl-N-methyl-1-(1-methyl-3-(1-methyl-1H-pyrazol-4-yl)-1H-indazol-5-yl)-5,6-dihydroimidazo[1,5-a]pyrazine-7(8H)-carboxamide] | > 10000 nM | 12 nM |
| CNC(=O)N1CCn2c(C3CCC(F)(F)CC3)nc(-c3c(F)ccc4cc(-c5cn(C)nc5C)ncc34)c2C1 [Example 81, 3-(4,4-difluorocyclohexyl)-1-(3-(1,3-dimethyl-1H-pyrazol-4-yl)-7-fluoroisoquinolin-8-yl)-N-methyl-5,6-dihydroimidazo[1,5-a]pyrazine-7(8H)-carboxamide] | 10500 nM | 11 nM |
| CC(=O)N1CCn2c(C3CCN(C)CC3)nc(-c3ccc4c(c3)c(-c3cnn(C)c3)nn4C)c2C1 [Example 54, 1-(1-(1-methyl-3-(1-methyl-1H-pyrazol-4-yl)-1H-indazol-5-yl)-3-(1-methylpiperidin-4-yl)-5,6-dihydroimidazo[1,5-a]pyrazin-7(8H)-yl)ethan-1-one] | > 10000 nM | 141 nM |
| CNC(=O)c1cc(-c2ccc3c(c2)CCCN3c2nc(C3CC3)n3c2CN(C(C)=O)CC3)ccn1 [Example 117, 4-(1-(7-acetyl-3-cyclopropyl-5,6,7,8-tetrahydroimidazo[1,5-a]pyrazin-1-yl)-1,2,3,4-tetrahydroquinolin-6-yl)-N-methylpicolinamide] | > 25000 nM | 739 nM |
| CNC(=O)N1CCn2c(C3CC3(F)F)nc(-c3cccc4nc(-c5cnn(C)c5)c(C(F)F)cc34)c2C1 (stereo not shown) [Example 60, 3-(2,2-difluorocyclopropyl)-1-(3-(difluoromethyl)-2-(1-methyl-1H-pyrazol-4-yl)quinolin-5-yl)-N-methyl-5,6-dihydroimidazo[1,5-a]pyrazine-7(8H)-carboxamide] | 15800 nM | 18 nM |
| CC(=O)N1CCn2c(C3CC3)nc(N3CCCc4cc(-c5ccc(=O)n(C)c5)ccc43)c2C1 [Example 113, 5-(1-(7-acetyl-3-cyclopropyl-5,6,7,8-tetrahydroimidazo[1,5-a]pyrazin-1-yl)-1,2,3,4-tetrahydroquinolin-6-yl)-1-methylpyridin-2(1H)-one] | 3460 nM | 193 nM |
| CNC(=O)N1CCn2c(C3CCOCC3)nc(-c3c(F)ccc4cc(-c5cnc(C)s5)ncc34)c2C1 [Example 89, 1-(7-fluoro-3-(2-methylthiazol-5-yl)isoquinolin-8-yl)-N-methyl-3-(tetrahydro-2H-pyran-4-yl)-5,6-dihydroimidazo[1,5-a]pyrazine-7(8H)-carboxamide] | 6840 nM | 2 nM |
| CC(=O)N1CCn2c(C3CC3)nc(-c3ccc4c(c3)c(-c3cn(C)nc3C)nn4C)c2C1 [Example 106, 1-(3-cyclopropyl-1-(3-(1,3-dimethyl-1H-pyrazol-4-yl)-1methyl-1H-indazol-5-yl)-5,6-dihydroimidazo[1,5-a]pyrazin-7(8H)-yl)ethan-1-one] | > 25000 nM | 286 nM |
| CC(=O)N1CCn2c(Cl)nc(-c3ccc4c(c3)c(-c3cnn(C)c3)nn4C)c2C1 [Example 32, 1-(3-Chloro-1-(1-methyl-3-(1-methyl-1H-pyrazol-4-yl)-1H-indazol-5-yl)-5,6-dihydroimidazo[1,5-a]pyrazin-7(8H)-yl)ethan-1-one] | > 10000 nM | 439 nM |
| CC(=O)N1CCn2c(C3CC3)nc(N3CCCc4cc(-c5cnn(C6CCC6)c5)ccc43)c2C1 [Example 119, 1-(1-(6-(1-cyclobutyl-1H-pyrazol-4-yl)-3,4-dihydroquinolin-1(2H)-yl)-3-cyclopropyl-5,6-dihydroimidazo[1,5-a]pyrazin-7(8H)-yl)ethan-1-one] | > 25000 nM | 313 nM |
| CNC(=O)N1CCn2c(C3CC3)nc(N3CCCc4nc(-c5cnn(C)c5)c(C(F)(F)F)cc43)c2C1 [Example 33, 3-Cyclopropyl-N-methyl-1-(6-(1-methyl-1H-pyrazol-4-yl)-7-(trifluoromethyl)-3,4-dihydro-1,5-naphthyridin-1(2H)-yl)-5,6-dihydroimidazo[1,5-a]pyrazine-7(8H)-carboxamide] | > 10000 nM | 40 nM |
| CNC(=O)N1CCn2c(C3CC(F)(F)C3)nc(-c3cccc4cc(-c5ccn(C)n5)ncc34)c2C1 [Example 79, 3-(3,3-difluorocyclobutyl)-N-methyl-1-(3-(1-methyl-1H-pyrazol-3-yl)isoquinolin-8-yl)-5,6-dihydroimidazo[1,5-a]pyrazine-7(8H)-carboxamide] | 14800 nM | 6 nM |
| CNC(=O)N1CCn2c(C3CC3)nc(-c3cccc4nc(-c5cn(C)nc5C)c(C(F)(F)F)cc34)c2C1 [Example 101, 3-cyclopropyl-1-(2-(1,3-dimethyl-1H-pyrazol-4-yl)-3-(trifluoromethyl)quinolin-5-yl)-N-methyl-5,6-dihydroimidazo[1,5-a]pyrazine-7(8H)-carboxamide] | 24700 nM | 19 nM |
| CC(=O)N1CCn2c(C3CCNCC3)nc(-c3ccc4c(c3)c(-c3cnn(C)c3)nn4C)c2C1 [Example 51, 1-(1-(1-methyl-3-(1-methyl-1H-pyrazol-4-yl)-1H-indazol-5-yl)-3-(piperidin-4-yl)-5,6-dihydroimidazo[1,5-a]pyrazin-7(8H)-yl)ethan-1-one] | > 10000 nM | 149 nM |
| CC(=O)N1CCn2c(C3CC3)nc(-c3cnc(N)c(OC(F)(F)F)c3)c2C1 [Example 41, 1-(1-(6-amino-5-(trifluoromethoxy)pyridin-3-yl)-3-cyclopropyl-5,6-dihydroimidazo[1,5-a]pyrazin-7(8H)-yl)ethan-1-one] | > 25000 nM | 4490 nM |
| CC(=O)N1CCn2c(C3CN(C)C3)nc(-c3ccc4c(c3)c(-c3cnn(C)c3)nn4C)c2C1 [Example 13, 1-(1-(1-Methyl-3-(1-methyl-1H-pyrazol-4-yl)-1H-indazol-5-yl)-3-(1-methylazetidin-3-yl)-5,6-dihydroimidazo[1,5-a]pyrazin-7(8H)-yl)ethanone] | > 10000 nM | 1380 nM |
